Structures can show the parent of a compound that is named as a salt. Where two headings read alike, the source gives them in different places.
How the values were obtained:
[1] = system: BCC (basal cell carcinoma); test: Cell viability analysis, skin cancer BCC; format: cell-based, human; conditions: Homo sapiens, 72 h; BCC; repeated experiment; read-out: The results of antibiotic drug inhibiting cancer cell lines (cell viability analysis), BCC
[2] = system: HepG2 (Hepatocellular Carcinoma); test: Cell viability analysis, hepatic cancer HepG2; format: cell-based, human; conditions: Homo sapiens, HepG2, 72 h
[3] = system: Hep3B (hepatocellular carcinoma); test: Cell viability analysis, hepatic cancer Hep3B; format: cell-based, human; conditions: Homo sapiens, 72 h; Hep3B; repeated experiment; read-out: The results of antibiotic drug inhibiting cancer cell lines (cell viability analysis), Hep3B
[4] = system: BxPC-3; test: Cell viability analysis, pancreatic cancer BxPC-3; format: cell-based, human; conditions: Homo sapiens, 72 h; BxPC-3; repeated experiment; read-out: The results of antibiotic drug inhibiting cancer cell lines (cell viability analysis), BxPC-3
[5] = system: HI650 (Lung Adenocarcinoma); test: Cell viability analysis, lung cancer HI650; format: cell-based, human; conditions: Homo sapiens, NCI-H1650, 72 h
[6] = system: C-33A (Cervical carcinoma); test: Cell viability analysis, cervical cancer C-33A; format: cell-based, human; conditions: Homo sapiens, 72 h; C-33A; repeated experiment; read-out: The results of antibiotic drug inhibiting cancer cell lines (cell viability analysis), C-33A
[7] = system: A375 (Amelanotic Melanoma); test: Cell viability analysis, skin cancer A375; format: cell-based, human; conditions: Homo sapiens, A-375, 72 h
[8] = system: AsPC-1; test: Cell viability analysis, pancreatic cancer AsPC-1; format: cell-based, human; conditions: Homo sapiens, ASPC1, 72 h; AsPC-1; repeated experiment; read-out: The results of antibiotic drug inhibiting cancer cell lines (cell viability analysis), AsPC-1
[9] = system: T24; test: Cell viability analysis, bladder cancer T24; format: cell-based, human; conditions: Homo sapiens, T-24, 72 h; T24; repeated experiment; read-out: The results of antibiotic drug inhibiting cancer cell lines (cell viability analysis), T24
[10] = system: PC3 (p53−) (Prostate Adenocarcinoma); test: Cell viability analysis, prostate cancer PC3; format: cell-based, human; conditions: Homo sapiens, 72 h
[11] = system: MKN-45 (Gastric Adenocarcinoma); test: Cell viability analysis, gastric cancer MKN-45; format: cell-based, human; conditions: Homo sapiens, MKN-45, 72 h
[12] = system: TOV-21G; test: Cell viability analysis, ovarian cancer TOV-21G; format: cell-based, human; conditions: Homo sapiens, TOV21G, 72 h; TOV-21G; repeated experiment; read-out: The results of antibiotic drug inhibiting cancer cell lines (cell viability analysis), TOV-21G
[13] = system: MCF7 (Mammary Gland, Adenocarcinoma); test: Cell viability analysis, breast cancer MCF7; format: cell-based, human; conditions: Homo sapiens, MCF7, 72 h
[14] = system: MDA-MB-231 (Mammary Gland, Adenocarcinoma); test: Cell viability analysis, breast cancer MDA-MB-231; format: cell-based, human; conditions: Homo sapiens, MDA-MB-231, 72 h; MDA-MB231; repeated experiment; read-out: The results of antibiotic drug inhibiting cancer cell lines (cell viability analysis), MDA-MB231
[15] = system: LoVo (Colorectal Adenocarcinoma); test: Cell viability analysis, colon cancer LoVo; format: cell-based, human; conditions: Homo sapiens, LoVo, 72 h
[16] = system: NIH: OVCAR-3; test: Cell viability analysis, ovarian cancer NIH: OVCAR-3; format: cell-based, human; conditions: Homo sapiens, 72 h; NIH-OVCAR-3; repeated experiment; read-out: The results of antibiotic drug inhibiting cancer cell lines (cell viability analysis), NIH-OVCAR-3
[17] = system: U-2OS; test: Cell viability analysis, osteosarcoma U-2OS; format: cell-based, human; conditions: Homo sapiens, 72 h; U2OS; repeated experiment; read-out: The results of antibiotic drug inhibiting cancer cell lines (cell viability analysis), U2OS
[18] = system: AGS (Gastric Adenocarcinoma); test: Cell viability analysis, gastric cancer AGS; format: cell-based, human; conditions: Homo sapiens, 72 h
[19] = system: HL-60 (Acute Promyelocytic Leukemia); test: Cell viability analysis, leukemia HL-60; format: cell-based, human; conditions: Homo sapiens, HL-60, 72 h, drug 10 μM, 72 hours, WST-1, OD450 nm; read-out: cell viability (survival rate), HL-60
[20] = system: 786-O (Renal adenocarcinoma); test: Cell viability analysis, renal cancer 786-O; format: cell-based, human; conditions: Homo sapiens, 786-0, 72 h; 786-O; repeated experiment; read-out: The results of antibiotic drug inhibiting cancer cell lines (cell viability analysis), 786-O
[21] = system: SAS (Tongue squamous cell carcinoma); test: Cell viability analysis, tongue cancer SAS; format: cell-based, human; conditions: Homo sapiens, 72 h; SAS; repeated experiment; read-out: The results of antibiotic drug inhibiting cancer cell lines (cell viability analysis), SAS
[22] = system: A549 (Lung Adenocarcinoma); test: Cell viability analysis, lung cancer A549; format: cell-based, human; conditions: Homo sapiens, A549, 72 h
[23] = system: HeLa (Cervix Adenocarcinoma); test: Cell viability analysis, cervical cancer HeLa; format: cell-based, human; conditions: Homo sapiens, HeLa, 72 h, HeLa
[24] = system: HCT116 (p53+) (Colorectal Carcinoma)
[25] = system: cancer cell lines; test: Cell viability analysis (WST-1) on cancer cell lines; format: cell-based, human; conditions: drug 10 μM, 72 hours, WST-1; Table 3
[26] = HepG2, repeated experiment, read-out: The results of antibiotic drug inhibiting cancer cell lines (cell viability analysis), HepG2
[27] = drug 10 μM, 72 hours, WST-1, OD450 nm, read-out: cell viability (survival rate), HepG2
[28] = H1650, repeated experiment, read-out: The results of antibiotic drug inhibiting cancer cell lines (cell viability analysis), H1650
[29] = drug 10 μM, 72 hours, WST-1, OD450 nm, read-out: cell viability (survival rate), H1650
[30] = A375, repeated experiment, read-out: The results of antibiotic drug inhibiting cancer cell lines (cell viability analysis), A375
[31] = drug 10 μM, 72 hours, WST-1, OD450 nm, read-out: cell viability (survival rate), A375
[32] = PC-3, repeated experiment, read-out: The results of antibiotic drug inhibiting cancer cell lines (cell viability analysis), PC-3
[33] = drug 10 μM, 72 hours, WST-1, OD450 nm, read-out: cell viability (survival rate), PC3
[34] = MKN-45, repeated experiment, read-out: The results of antibiotic drug inhibiting cancer cell lines (cell viability analysis), MKN-45
[35] = drug 10 μM, 72 hours, WST-1, OD450 nm, read-out: cell viability (survival rate), MKN-45
[36] = MCF-7, repeated experiment, read-out: The results of antibiotic drug inhibiting cancer cell lines (cell viability analysis), MCF-7
[37] = drug 10 μM, 72 hours, WST-1, OD450 nm, read-out: cell viability (survival rate), MCF7
[38] = read-out: The results of antibiotic drug inhibiting cancer cell lines (cell viability analysis), LoVo, repeated experiment
[39] = read-out: cell viability (survival rate), LoVo, drug 10 μM, 72 hours, WST-1, OD450 nm
[40] = AGS, repeated experiment, read-out: The results of antibiotic drug inhibiting cancer cell lines (cell viability analysis), AGS
[41] = drug 10 μM, 72 hours, WST-1, OD450 nm, read-out: cell viability (survival rate), AGS
[42] = A549, repeated experiment, read-out: The results of antibiotic drug inhibiting cancer cell lines (cell viability analysis), A549
[43] = drug 10 μM, 72 hours, WST-1, OD450 nm, read-out: cell viability (survival rate), A549
[44] = repeated experiment, read-out: The results of antibiotic drug inhibiting cancer cell lines (cell viability analysis), HeLa
[45] = drug 10 μM, 72 hours, WST-1, OD450 nm, read-out: cell viability (survival rate), HeLa

| Compound | viability at 10 µM [1] [%] | viability at 10 µM [2, 26] [%] | viability at 10 µM [2, 27] [%] | viability at 10 µM [3] [%] | viability at 10 µM [4] [%] | viability at 10 µM [5, 28] [%] | viability at 10 µM [5, 29] [%] | viability at 10 µM [6] [%] | viability at 10 µM [7, 30] [%] | viability at 10 µM [7, 31] [%] | viability at 10 µM [8] [%] | viability at 10 µM [9] [%] | viability at 10 µM [10, 32] [%] | viability at 10 µM [10, 33] [%] | viability at 10 µM [11, 34] [%] | viability at 10 µM [11, 35] [%] | viability at 10 µM [12] [%] | viability at 10 µM [13, 36] [%] | viability at 10 µM [13, 37] [%] | viability at 10 µM [14] [%] | further results |
| --- | --- | --- | --- | --- | --- | --- | --- | --- | --- | --- | --- | --- | --- | --- | --- | --- | --- | --- | --- | --- | --- |
| COc1c(C)c2c(c(O)c1C/C=C(\C)CCC(=O)O)C(=O)OC2 [Mycophenolic (Mycophenolate), Mycophenolic] | 44.6 | 62.1 | 72.9 | 66.8 | 45.7 | 54.5 | 83.1 | 51.8 | 28.9 | 57.4 | 48.1 | 48.2 | 55.4 | 74.3 | 64.9 | 61.7 | 40.3 | 70.3 | 120 | 56.9 | viability at 10 µM [15, 38]: 58.6%; viability at 10 µM [15, 39]: 70.1%; viability at 10 µM [16]: 59%; viability at 10 µM [17]: 43.2%; viability at 10 µM [18, 40]: 31.7%; viability at 10 µM [18, 41]: 57.8%; viability at 10 µM [19]: 65.6%; viability at 10 µM [20]: 24.7%; viability at 10 µM [21]: 43.2%; viability at 10 µM [22, 42]: 39%; viability at 10 µM [22, 43]: 80.6%; viability at 10 µM [23, 44]: 46.1%; viability at 10 µM [23, 45]: 90.7%; viability [24]: 43.1% |
| CC(C)/N=c1\cc2n(-c3ccc(Cl)cc3)c3ccccc3nc-2cc1Nc1ccc(Cl)cc1 [Clofazimine] | 72.9 | 90.4 | 82.2 | 91.6 | 72.2 | 92.2 | 74.4 | 111 | 81.2 | 37.3 | 76.6 | 74.1 | 106 | 53.2 | 108 | 53.1 | 65.1 | 74.2 | 51.2 | 102 | viability at 10 µM [15, 38]: 83.4%; viability at 10 µM [15, 39]: 68.3%; viability at 10 µM [16]: 97.3%; inhibition effect on different cancer cell lines [25]: significant inhibition effect; viability at 10 µM [17]: 80.6%; viability at 10 µM [18, 40]: 78.8%; viability at 10 µM [18, 41]: 64.2%; viability at 10 µM [19]: 85%; viability at 10 µM [20]: 82.5%; viability at 10 µM [21]: 75.2%; viability at 10 µM [22, 42]: 87.1%; viability at 10 µM [22, 43]: 49.5%; viability at 10 µM [23, 44]: 94.3%; viability at 10 µM [23, 45]: 59.3% |
| CN(C)CCC=C1c2ccccc2CCc2ccccc21 [Amitriptyline HCl] | 113 | 106 | 106 | 124 | 67.2 | 111 | 64.4 | 100 | 94.3 | 84.8 | 73.1 | 97.5 | 99.4 | 61.9 | 135 | 102 | 118 | 67.7 | 64.8 | 106 | viability at 10 µM [15, 38]: 90.5%; viability at 10 µM [15, 39]: 96.5%; viability at 10 µM [16]: 104%; inhibition effect on different cancer cell lines [25]: significant inhibition effect; viability at 10 µM [17]: 68.5%; viability at 10 µM [18, 40]: 146%; viability at 10 µM [18, 41]: 61.5%; viability at 10 µM [19]: 81.4%; viability at 10 µM [20]: 85.5%; viability at 10 µM [21]: 67.5%; viability at 10 µM [22, 42]: 73.3%; viability at 10 µM [22, 43]: 69.3%; viability at 10 µM [23, 44]: 111%; viability at 10 µM [23, 45]: 90.6% |

Reference: patent US10105357B2, “Indication of antibiotic drugs for preparation of cancer inhibition pharmaceutical composition” (LAUNX BIOMEDICAL CO., LTD., priority 2014, dated 2018)
